“Also recorded” adds a separate entry of the source.
Key:
RatMOG-induced EAE = assay: RatMOG-induced EAE, b.i.d. dosing until study end; assay type: in vivo
Method: Dosing of LOU064 was initiated 4 hours prior to MOG/CFA immunization and continued twice daily until study end.

[1] = tested on: MOG-specific immunoglobulin responses; assay: MOG-specific autoantibodies in serum, RatMOG EAE; assay type: in vivo, mouse; settings: 30 mg/kg b.i.d., day 21, vs vehicle
From the text: In immunized mice, treated with either vehicle or LOU064, the MOG-specific autoantibody levels, total IgM and IgG subclasses were markedly higher as compared to naive mice. LOU064 treatment had no effect on the MOG-specific IgM and IgG responses in serum compared to vehicle treated mice.

[2] = tested on: B-cell and CD4+ T-cell populations; assay: Ex vivo analysis of B-cell and CD4+ T-cell populations, HumanMOG EAE; design: species or system mouse; settings: dosed in vivo b.i.d.
From the text: Prophylactic LOU064 (b.i.d.) treatment during HumanMOG EAE reduces Th17 cells. […] Group sizes n=5 per treatment. Statistical significance (ANOVA with Dunnett's test) is shown as *p<0.05.

HumanMOG-induced EAE = HumanMOG-induced EAE in C57BL/6 mouse, prophylactic b.i.d. dosing; assay type: in vivo
From the text: There is no known naturally occurring MS-like disease in rodents or non-human primates. Following immunization of susceptible rodent strains with CNS-specific myelin proteins emulsified in complete Freund's adjuvant (CFA) an induced disease model develops. Experimental autoimmune encephalitis (EAE) mimics many of the pathological phenotypes of MS with focal, demyelinating lesions of the CNS white matter. In the C57BL/6 mouse there are two variants of myelin oligodendrocyte glycoprotein (MOG)-induced EAE depending on whether the human (HumanMOG) or rat (RatMOG) recombinant protein sequences are used (Lyons J.A. et al. (1999) European Journal of Immunology 29:3432-3439; Oliver A. R. et al. (2003) J Immunology 171: 462-468). Minor amino acid residue differences result in HumanMOG-induced EAE being exquisitely B-cell dependent as the APC, whilst RatMOG-induced EAE is B-cell independent and requires dendritic cells as the dominant APC population (Lyons et al 1999; Molnarfi N. et al. (2013) Journal of Experimental Medicine 210(13):2921-2937).
In HumanMOG-induced EAE the BTK inhibitor LOU064 was dosed twice daily (b.i.d.) at 3 mg/kg or 30 mg/kg at 12 hr intervals. Prophylactic dosing of LOU064 was initiated 6 hours prior to MOG/CFA immunization and continued until study end.
EAE was assessed using a scoring system, outlined in Table 1. Clinical scores and body weights were assessed daily throughout the experiment.
According to the animal regulations, humane endpoints for EAE mice were score 3 (>7 days), score 3.5 (>3 days), or immediately if score 4 was reached.
Using a short eight-day (pre-disease onset) EAE protocol, the immune priming mechanisms during the HumanMOG model were investigated.

NF-L = NF-L concentration in serum, RatMOG EAE; assay type: in vivo, mouse; settings: 30 mg/kg b.i.d., vs vehicle
From the text: In immunized mice, vehicle or LOU064-treated, the mean NF-L level was markedly higher as compared to naive mice.

[3] = single/multiple doses 0.5 mg to 600 mg up to 18 days; 100 and 200 mg b.i.d.; cited from earlier work
[4] = tested on: splenocytes and draining lymph node cells; assay: Ex vivo MOG-induced recall proliferation, HumanMOG EAE; design: species or system mouse; settings: dosed in vivo
Method: Prophylactic LOU064 (b.i.d.) treatment during HumanMOG EAE inhibits (auto)antigen recall proliferation. Isolated splenocytes and draining lymph node cells were incubated in vitro with HumanMOG for 48 hours. Antigen-specific proliferation was determined by [^3H]-thymidine incorporation. […] Group sizes n=5 per treatment.
Ex vivo MOG-induced recall proliferation responses were studied using isolated splenocytes and draining lymph node cells collected on day 8 post-immunization. […] In contrast, plate-bound anti-CD3/CD28 polyclonal stimulation of lymph node cells was unaffected by the in vivo treatment.

[5] = tested on: canine P-gp knockout MDCK cell monolayers (MDCK-LE V2); assay: Passive permeability, canine P-gp knockout MDCK cell monolayers (MDCK-LE V2); assay type: in vitro ADME; settings: MDCK trans-well assay
Method: (§1) Passive permeability measurement using canine P-gp knockout MDCK cell monolayers (MDCK-LE V2)
(§2) A cell-based assay was used to assess the passive permeability of drug candidates in the context of gastro-intestinal absorption. A MDCK cell line where the endogenous canine Mdr1 (cMdr1) gene encoding P-gp has been knocked out is grown to form monolayers on a 96-well Transwell plate. Compounds are loaded in cassettes of three at a concentration of 10 μM each to the apical compartment and following a period of two hours incubation the amount of compound appearing in the basal chamber is quantitated by tandem mass spectrometry.
(§3) In particular, a MDCK cell line was generated by knocking-out the endogenous canine Mdr1 (cMdr1) gene. A subclone of this cell line was used to relate passive permeability to the fraction absorbed in human intestine using a set of 37 commercial compounds for which the fraction absorbed was known. The assay is able to estimate the fraction absorbed in human based on the Papp measured in the assay.
(§4) Samples were subject to RapidFire/MS/MS analysis and LC/MS/MS analysis. […]

[6] = as above; assay type: in vitro ADME; settings: dog, MDCK; 10 μM apical, two hours incubation
Method: as §1, §2, §3, §4

In the case of `C=CC(=O)N(C)CCOc1c(N)ncnc1-c1cc(F)cc(NC(=O)c2ccc(C3CC3)cc2F)c1C` [LOU064, N-(3-(6-amino-5-(2-(N-methylacrylamido)ethoxy)pyrimidin-4-yl)-5-fluoro-2-methylphenyl)-4-cyclopropyl-2-fluorobenzamide], the tolerability (RatMOG-induced EAE; 30 mg/kg b.i.d.) was “well tolerated in all mice”, the cumulative disease burden (RatMOG-induced EAE; 30 mg/kg b.i.d., p value=0.013) was “significantly reduced” and the “disease incidence and time of EAE onset” value (RatMOG-induced EAE; 30 mg/kg b.i.d., p value=0.018) was “reduction in the incidence of EAE and a delayed onset; also recorded: significantly reduced disease incidence”. For the same compound, the “clinical symptoms of EAE / EAE scores” value (RatMOG-induced EAE; 30 mg/kg p.o. b.i.d.) was “inhibited inflammation-induced clinical symptoms of EAE and cachexia; also recorded: efficacious at reducing the severity of RatMOG-induced EAE; also recorded: improvement in EAE scores”, the “daily body weight changes (cachexia)” value (RatMOG-induced EAE; 30 mg/kg p.o. b.i.d.) was “significantly reduced” and the “MOG-specific IgM and IgG responses in serum” value [1] was “had no effect; also recorded: did not affect”. The “Th1 and Tregs” value [2] was “unchanged; also recorded: No changes were observed”, the “Th17 (IL-17+) cells” value [2] was “reduced; also recorded: significant reduction” and the “frequencies of B-cell populations” value [2] was “no significant changes in total B-cell populations”. The “total CD4+ T-cell population” value [2] was “unchanged”, the “neurologic symptoms and EAE-induced weight loss” value (HumanMOG-induced EAE; 3 mg/kg b.i.d.) was “only a fairly weak reduction” and the cumulative disease burden (HumanMOG-induced EAE; 30 mg/kg b.i.d.) was “significantly reduced”. For the same compound, the “disease incidence / frequency of EAE onset” value (HumanMOG-induced EAE; 30 mg/kg b.i.d.) was “reduction in the frequency of EAE onset; also recorded: significantly reduced disease incidence”, the “peak EAE score” value (HumanMOG-induced EAE; 30 mg/kg b.i.d.) was “significantly reduced” and the “EAE clinical symptoms / EAE scores” value (HumanMOG-induced EAE; 30 mg/kg p.o. b.i.d.) was “improvement in EAE scores; also recorded: significantly reduced clinical symptoms of EAE; also recorded: highly effective at inhibiting HumanMOG-induced EAE induction; also recorded: strongly reduced neurologic symptoms”. The “inflammation-induced cachexia / daily body weight change” value (HumanMOG-induced EAE; 30 mg/kg p.o. b.i.d.) was “significantly improved; also recorded: inhibited inflammation-induced cachexia; also recorded: strongly reduced”, the tolerability (HumanMOG-induced EAE; 3 and 30 mg/kg p.o. b.i.d.) was “well tolerated in all animals” and the adverse events (HumanMOG-induced EAE; mouse, in vivo) was “no adverse events were observed with either dose group”. The “weight gain in immunized mice (inflammation-induced cachexia)” value (HumanMOG-induced EAE; short eight-day pre-EAE protocol, 30 mg/kg twice daily) was “improved weight gain”, the “mean serum NF-L level” value (NF-L) was “non-significant trend towards a lower mean NF-L level; also recorded: slightly reduced” and the short-term safety [3] was “has been shown in Phase I clinical studies”. For the same compound, the “MOG-specific proliferation ([3H]-thymidine incorporation)” value ([4]; cells incubated with HumanMOG 48 hours) was “dose-dependent reduction in MOG-specific proliferation”, the “polyclonal stimulation with anti-CD3/CD28” value ([4]; lymph node cells) was “unchanged” and the recovery [5] was “high recovery”. For the same compound, the Papp A→B at 2 h, 10 μM [6] was 37.3 ×10⁻⁶ cm/s.
